# Source: patent US20070093554A1, “AGENT FOR IMPROVING FEELING OF COLD” (priority 2005, published 2007)
# Experiment: Improvement in feeling of cold evaluated by Visual Analogue Scale (VAS) method after 3 weeks ingestion of tablets
# Format: in vivo, human
# Conditions: 6 tablets of example 1 a day for 3 weeks, normal subjects 45 to 64 years, vs tablet not containing ornithine; FIG. 2
# Experimental: Before the ingestion and just after the ingestion, the improvements in feeling of cold of each subject were evaluated using Visual Analogue Scale (VAS) method.
# Specifically each end of the segment has a criterion of expression. Referring to FIG. 1, each subject marked somewhere in the line, corresponding to each term of the questionnaires. The distance (mm) from the left end of the line to the marked point was measured and the difference between before and after the test was calculated. The difference by the value before the test was shown in the percentage calculated; and each average value and standard deviation for each group were calculated. […] Further, it was confirmed that there was no difference between two groups before the administration test.
# Further the test was carried out under a random assignment and the comparison between the double blind parallel groups was carried out. The test of the statistically significant difference between two groups was an unpaired t-test of both side distributions using the difference between the beginning and just after the test.
compound,measurement,value
NCCC[C@H](N)C(=O)O [ornithine],"coldness of hands and feet (improvement, VAS)",improved remarkably
